Patent US11766468B2, “Method of treating prostate cancer with GnRH antagonist” (priority 2012, dated 2023)
“And” between values parts separate entries of the source, which are not always exact repeats. Equal values may be shown once. Marks after values point to notes of the source that are not given here. Square brackets hold non-standard residues; d marks the D form. Peptide text beside a SMILES is read from it. * marks the point of attachment. dPhe(4-NHCONH2) = NC(=O)Nc1ccc(C[C@@H](N)C(=O)O)cc1; Dihydroorotyl(S) = O=C1C[C@@H](C(=O)*)NC(=O)N1; dPhe(4-Cl) = N[C@H](Cc1ccc(Cl)cc1)C(=O)O; Phe(4-NH2) = Nc1ccc(C[C@H](N)C(=O)O)cc1; d2Nal = N[C@H](Cc1ccc2ccccc2c1)C(=O)O; Lys(iPr) = CC(C)NCCCC[C@H](N)C(=O)O; d3Pal = N[C@H](Cc1cccnc1)C(=O)O

Test: CS21 safety: treatment-emergent adverse events (MedDRA SOC/PT), crude incidence, also by subgroup
Format: in vivo
Protocol: The safety variables for this study were assessed on the following: the frequency and severity of adverse events (AEs); the presence of clinically significant changes in laboratory parameters (clinical chemistry, hematology and urinalysis); changes in electrocardiograms (ECGs) and vital signs; changes detected by physical examination; and body weight.
An AE was therefore any unfavorable or unintended sign (including an abnormal laboratory finding), symptom or disease temporally associated with the use of the product, whether or not related to the IMP.
An adverse drug reaction (ADR) was defined as an AE evaluated by the investigator as being probably or possibly related to treatment with the IMP.
AEs were graded according to the National Cancer Institute (NCI) Common Terminology Criteria for Adverse Events (CTCAE). In accordance with the CTCAE criteria, AEs were rated on a five-point scale corresponding to mild, moderate, severe, life-threatening or disabling and death. For those AEs not described in the CTCAE, a separate five-point rating scale was used for rating of the intensity of AEs as follows below:
Safety parameters were evaluated for all patients included in the ITT analysis set, comprising all 610 randomized patients who received at least one dose of study medication. All safety tables include four columns: the three treatment groups described separately, and the pooled degarelix group.
Adverse events were regarded as ‘treatment-emergent’ if they occurred in the time interval from initial dosing to end-of-study. Adverse events were considered ‘pre-treatment’ if they occurred between screening and the initial injections of IMP. As described above, all AEs were classified according to MedDRA (version 10.0) system organ class (SOC), sorted alphabetically, and by preferred term (PT), in decreasing frequency of occurrence. Treatment-emergent AEs were expressed in terms of intensity (using NCI CTCAE) and relationship to study drug.
Using the results from the summary of clinical efficacy (SCE) and summary of clinical safety (SCS) findings, different patient subgroups were analyzed. Subgroup distinguishers included race (white, black, and other), age (<65 years, […], and >75 years), weight (<70 kg, ≥70−<90 kg, and ≥90 kg), body mass index (BMI) (≤20, >20 to 30, and >30 kg/m^2)), region (North-America, Western Europe, Central and Eastern Europe and Other), and stage of prostate cancer (e.g., localized, locally advanced, and metastatic).

[1] = degarelix 240/160 mg, listed as degarelix
[2] = degarelix Total (pooled), leuprolide 7.5 mg
[3] = degarelix Total (pooled), leuprolide 7.5 mg, listed as degarelix
[4] = degarelix pooled, LUPRON DEPOT 7.5 mg
[5] = degarelix pooled, LUPRON DEPOT 7.5 mg, listed as degarelix
[6] = pooled degarelix, leuprolide 7.5 mg

SMILES: CC(=O)N[C@H](Cc1ccc2ccccc2c1)C(=O)N[C@H](Cc1ccc(Cl)cc1)C(=O)N[C@H](Cc1cccnc1)C(=O)N[C@@H](CO)C(=O)N[C@@H](Cc1ccc(NC(=O)[C@@H]2CC(=O)NC(=O)N2)cc1)C(=O)N[C@H](Cc1ccc(NC(N)=O)cc1)C(=O)N[C@@H](CC(C)C)C(=O)N[C@@H](CCCCNC(C)C)C(=O)N1CCC[C@H]1C(=O)N[C@H](C)C(N)=O [Degarelix, D-Alaninamide, N-acetyl-3-(2-naphthalenyl)-D-alanyl-4-chloro-D-phenylalanyl-3-(3-pyridinyl)-D-alanyl-L-seryl-4-[[[(4S)-hexahydro-2,6-dioxo-4-pyrimidinyl]carbonyl]amino]-L phenylalanyl-4-[(aminocarbonyl)amino]-D-phenylalanyl-L leucyl-N6-(1-methylethyl)-L-lysyl-L-prolyl] (Ac-[d2Nal][dPhe(4-Cl)][d3Pal]S[Phe(4-NH2)](Dihydroorotyl(S))[dPhe(4-NHCONH2)]L[Lys(iPr)]P[dA]-NH2)
- AEs leading to discontinuation, % of patients (degarelix 240/160 mg): 9%
- AEs leading to discontinuation, E events (degarelix 240/160 mg): 19
- AEs leading to discontinuation, N patients (degarelix 240/160 mg): 19
- Alanine aminotransferase increased, % of patients (degarelix 240/160 mg): ( 8%)
- All AEs, E = number of adverse events (degarelix 240/160 mg): 941
- All AEs, N = number of patients (degarelix 240/160 mg): 167
- Arthralgia, % of patients (degarelix 240/160 mg): ( 3%)
- Aspartate aminotransferase increased, % of patients (degarelix 240/160 mg): ( 5%)
- Back pain, % of patients (degarelix 240/160 mg): ( 6%)
- Blood & lymphatic system disorders, % of patients (degarelix 240/160 mg): ( 5%)
- Cardiac disorders, % of patients (degarelix 240/160 mg): ( 9%)
- Chills, % of patients (degarelix 240/160 mg): ( 3%)
- Constipation, % of patients (degarelix 240/160 mg): ( 3%)
- Deaths (Grade 5), % of patients (degarelix 240/160 mg): 2%
- Deaths (Grade 5), E events (degarelix 240/160 mg): 6
- Deaths (Grade 5), N patients (degarelix 240/160 mg): 5
- Ear & labyrinth disorders, % of patients (degarelix 240/160 mg): ( 1%)
- Endocrine disorders, % of patients (degarelix 240/160 mg): (<1%)
- Eye disorders, % of patients (degarelix 240/160 mg): ( 2%)
- Fatigue, % of patients (degarelix 240/160 mg): ( 6%)
- Gastrointestinal disorders, % of patients (degarelix 240/160 mg): (16%)
- General disorders & administration site conditions, % of patients (degarelix 240/160 mg): (50%)
- Hepatobiliary disorders, % of patients (degarelix 240/160 mg): (<1%)
- Hot flush, % of patients (degarelix 240/160 mg): (26%)
- Hypercholesterolaemia, % of patients (degarelix 240/160 mg): ( 6%)
- Hypertension, % of patients (degarelix 240/160 mg): ( 7%)
- Immune system disorders, % of patients (degarelix 240/160 mg): (<1%)
- Infections & infestations, % of patients (degarelix 240/160 mg): (19%)
- Injection site erythema, % of patients (degarelix 240/160 mg): (24%)
- Injection site induration, % of patients (degarelix 240/160 mg): ( 5%)
- Injection site nodule, % of patients (degarelix 240/160 mg): ( 6%)
- Injection site pain, % of patients (degarelix 240/160 mg): (30%)
- Injection site swelling, % of patients (degarelix 240/160 mg): ( 7%)
- Injury, poisoning & procedural complications, % of patients (degarelix 240/160 mg): ( 5%)
- Investigations, % of patients (degarelix 240/160 mg): (29%)
- Metabolism & nutrition disorders, % of patients (degarelix 240/160 mg): (13%)
- Musculoskeletal & connective tissue disorders, % of patients (degarelix 240/160 mg): (18%)
- Nausea, % of patients (degarelix 240/160 mg): ( 5%)
- Neoplasms benign, malignant & unspecified, % of patients (degarelix 240/160 mg): ( 6%)
- Nervous system disorders, % of patients (degarelix 240/160 mg): (13%)
- Psychiatric disorders, % of patients (degarelix 240/160 mg): ( 8%)
- Renal & urinary disorders, % of patients (degarelix 240/160 mg): (13%)
- Reproductive system & breast disorders, % of patients (degarelix 240/160 mg): ( 6%)
- Respiratory, thoracic & mediastinal disorders, % of patients (degarelix 240/160 mg): ( 8%)
- Serious AEs, % of patients (degarelix 240/160 mg): 12%
- Serious AEs, E events (degarelix 240/160 mg): 41
- Serious AEs, N patients (degarelix 240/160 mg): 24
- Skin & subcutaneous tissue disorders, % of patients (degarelix 240/160 mg): (10%)
- Surgical & medical procedures, % of patients (degarelix 240/160 mg): (<1%)
- Urinary tract infection, % of patients (degarelix 240/160 mg): ( 1%)
- Vascular disorders, % of patients (degarelix 240/160 mg): (32%)
- Weight increased, % of patients (degarelix 240/160 mg): (11%)
- Hot flush, % of patients [1]: 26%
- Treatment-emergent adverse events (all AEs), % of patients [1]: 83%
- Injection site erythema, % of patients (degarelix Total (pooled)): (21%)
- Injection site induration, % of patients (degarelix Total (pooled)): ( 5%)
- Injection site nodule, % of patients (degarelix Total (pooled)): ( 5%)
- Injection site swelling, % of patients (degarelix Total (pooled)): ( 7%)
- Surgical & medical procedures, % of patients (degarelix Total (pooled)): (<1%)
- ADRs, % of patients [2]: 58%
- ADRs, E events [2]: 922
- ADRs, N patients [2]: 238
- AEs leading to discontinuation, % of patients [2]: 8%
- AEs leading to discontinuation, E events [2]: 34
- AEs leading to discontinuation, N patients [2]: 34
- Alanine aminotransferase increased, % of patients [2]: ( 9%)
- All AEs, E = number of adverse events [2]: 1878
- All AEs, N = number of patients [2]: 330
- Aspartate aminotransferase increased, % of patients [2]: ( 5%)
- Back pain, % of patients [2]: ( 6%)
- Cardiac disorders, % of patients [2]: ( 9%)
- Chills, % of patients [2]: ( 4%)
- Constipation, % of patients [2]: ( 4%)
- Deaths (Grade 5), % of patients [2]: 2%
- Deaths (Grade 5), E events [2]: 11
- Deaths (Grade 5), N patients [2]: 10
- Ear & labyrinth disorders, % of patients [2]: ( 2%)
- Endocrine disorders, % of patients [2]: ( 1%)
- Eye disorders, % of patients [2]: ( 2%)
- Fatigue, % of patients [2]: ( 5%)
- Gastrointestinal disorders, % of patients [2]: (17%)
- General disorders & administration site conditions, % of patients [2]: (47%)
- Hepatobiliary disorders, % of patients [2]: (<1%)
- Hot flush, % of patients [2]: (26%)
- Hypercholesterolaemia, % of patients [2]: ( 5%)
- Hypertension, % of patients [2]: ( 6%)
- Immune system disorders, % of patients [2]: (<1%)
- Infections & infestations, % of patients [2]: (20%)
- Injection site pain, % of patients [2]: (29%)
- Injury, poisoning & procedural complications, % of patients [2]: ( 5%)
- Metabolism & nutrition disorders, % of patients [2]: (10%)
- Nausea, % of patients [2]: ( 5%)
- Neoplasms benign, malignant & unspecified, % of patients [2]: ( 5%)
- Nervous system disorders, % of patients [2]: (12%)
- Psychiatric disorders, % of patients [2]: ( 8%)
- Renal & urinary disorders, % of patients [2]: (13%)
- Respiratory, thoracic & mediastinal disorders, % of patients [2]: (10%)
- Serious AEs, % of patients [2]: 11%
- Serious AEs, E events [2]: 67
- Serious AEs, N patients [2]: 45
- Skin & subcutaneous tissue disorders, % of patients [2]: (10%)
- Vascular disorders, % of patients [2]: (33%)
- Weight increased, % of patients [2]: (10%)
- Arthralgia, % of patients [3]: 4% and 4.2%
- Back pain, % of patients [3]: 6%
- Cardiac disorders, % of patients [3]: 9%
- Gastrointestinal disorders, % of patients [3]: 17%
- General disorders & administration site conditions, % of patients [3]: 47%
- Infections & infestations, % of patients [3]: 20%
- Injection site pain, % of patients [3]: 29%
- Investigations, % of patients [3]: 27%
- Musculoskeletal & connective tissue disorders, % of patients [3]: 17%
- Renal & urinary disorders, % of patients [3]: 13%
- Reproductive system & breast disorders, % of patients [3]: 5%
- Treatment-emergent adverse events (all AEs), % of patients [3]: 81%
- Urinary tract infection, % of patients [3]: 3%
- Vascular disorders, % of patients [3]: 33%
- Myocardial Infarction (PT), % of patients (degarelix combined, LUPRON DEPOT 7.5 mg): 0.5%
- Deep vein thrombosis, N patients (degarelix pooled): 0
- Libido decreased, N patients (degarelix pooled): 0
- Cardiac murmur, % of patients [4]: 0%
- Chest pain, % of patients [4]: (<1%)*
- Cystitis noninfective, % of patients [4]: 0%
- Deep vein thrombosis, % of patients [4]: 0%
- Erectile dysfunction, % of patients [4]: (1%)*
- Libido decreased, % of patients [4]: 0%
- Musculoskeletal stiffness, % of patients [4]: 0%
- Myocardial ischaemia, % of patients [4]: (<1%)*
- Oedema peripheral, % of patients [4]: (2%)*
- Urinary retention, % of patients [4]: (1%)*
- Chest pain, % of patients [5]: 0.5%
- Erectile dysfunction, % of patients [5]: 1% and 1.5%
- Oedema peripheral, % of patients [5]: 2%
- Urinary retention, % of patients [5]: 1.2%
- discontinuations due to injection site adverse events (degarelix s.c., 12 months): < 1%
- immediate onset hypersensitivity reactions (in vivo): no immediate onset hypersensitivity reactions
- ADRs: general disorders and administration site conditions including injection-site reactions, % of patients (pooled degarelix): 42%
- Gynaecomastia, prostatitis or testicular atrophy (each), % of patients (pooled degarelix): 2%
- Hyperhidrosis, % of patients (pooled degarelix): < 1%
- Night sweats, % of patients (pooled degarelix): 1%
- Pelvic pain, % of patients (pooled degarelix): < 1%
- Sweating disorders, % of patients (pooled degarelix): approximately 1%
- Testicular pain, % of patients (pooled degarelix): < 1%
- incidence of all other injection site preferred terms (pooled degarelix): ≤ 0.5 per 100 injections
- incidence of injection site erythema (pooled degarelix): 1.9 per 100 injections
- incidence of injection site pain (pooled degarelix): 2.9 per 100 injections
- incidence of treatment-emergent injection site reactions (pooled degarelix): 4.4 per 100 injections
- injection site reactions which led to withdrawal, % of patients (pooled degarelix): 1.2%
- patients with SAEs that led to withdrawal, number (pooled degarelix): 17
- Hot flushes reported as ADR, % of patients [6]: 25%
- SAEs: cardiac disorders, % of patients [6]: 2%
- SAEs: renal and urinary disorders, % of patients [6]: 2%
